Data reported in patent publication US20040229241A1, “Cloned mammalian polyamine oxidase” (priority 2001, published 2004).

Columns and labels:
PAOh1/SMO = PAOh1/SMO activity in lysates of NCI A549 cells after analogue treatment; assay type: cell-based, human; details: for induction of PAOh1/SMO activity: NCI A549, 24 h exposure to 10 μM of each analogue; for substrate of the inducible PAOh1/SMO activity: lysates of NCI A549 treated with 10 μM BENSpm or CPENSpm 24 h, 250 μM substrate
Description: (§1) Cell Culture and Analysis of Growth Inhibition of Human Lung Cancer Cell Lines The non-small-cell cancer lines NCI A549 (adenocarcinoma), NCI H157 (squamous), NCI H727 (carcinoid), NCI H125 (adenocarcinoma) and U1752 (squamous), and the small-cell lung carcinoma lines NCI H82 and NCI H889 were cultured as we have previously described. Cells were treated for the times and with the concentrations of specific agents as indicated in the Results. For cell growth analysis in the presence of the PAOh1/SMO inhibitor MDL 72,527, the MTS dye reduction assay CellTiter 96 system from Promega was used according to the supplier's protocol. In these experiments, NCI A549 cells were seeded at 5×10^3 cells/well in a 96-well microtiter plate and treated for 96 h with 10 μM of the indicated analogue in the presence or absence of 250 μM MDL 72,527.
(§2) Total cellular RNA was extracted from the lung cancer cell lines using Trizol reagent (Invitrogen) according to the manufacturer's protocol. For Northern blotting, total RNA (20 lg) was separated on a denaturing 1.5% agarose gel containing 6% formaldehyde and transferred to Zetaprobe membrane (Bio-Rad). Random primer- labeled PAOh1 cDNA was used as probe to estimate PAOh1/SMO expression. Blots were stripped and reprobed with an 18S ribosomal cDNA to provide a loading control. Analysis of polyamine content, SSAT and PAOh1/SMO activity. Intracellular polyamine concentrations were determined using the precolumn dansylation labeling, reverse-phase high-pressure liquid chromatography method as described by Kabra et al. using 1,7-diaminoheptane as an internal standard. Polyamine concentrations are reported as nanomoles per milligram protein for each sample, where lysate protein content was measured by the method of Bradford. SSAT activity of cellular extracts was measured as previously described. […] The PAOh1/SMO assays were performed in the presence of 1.0 mM pargyline and 0.1 mM semicarbizide as inhibitors of monoamine oxidase (MAO) and diamine oxidase (DAO), respectively.

[1] = target: T1, purified recombinant human PAOh1/SMO (Homo sapiens, UniProt Q9NWM0); test: Oxidase activity of purified recombinant PAOh1/SMO, luminol chemiluminescence; assay type: biochemical; details: for ability to serve as substrate (oxidation by purified PAOh1/SMO): 250 μM of compound; for inhibition of PAOh1/SMO activity, increasing concentrations: 250 μM spermine
T1 construct: A 1702 bp fragment of the PAOh1cDNA was produced by PCR; His tag (pET15b) (N); made in house; host or cells: Escherichia coli BL21(DE3)
Description: Expression and Purification of PAOh1/SMO. The pET15b/PAOh1/SMO plasmid was used to transform the BL21(DE3) strain of Escherichia coli (Novagen) and transformed cells were selected on LB agar with 50 μg/ml ampicillin. The expression of PAOh1/SMO protein was induced in LB medium by the addition of 1 mM IPTG for 3 h at 37 ° C. Cell lysates were prepared under denaturing conditions with 8M urea and PAOh1/SMO protein was purified from the lysate by Ni-NTA resin according to the manufacturer's protocol (Qiagen, Valencia, Calif.). The resulting denatured protein was renatured in buffers containing decreasing concentrations of urea (5M urea, 4 h; 2.5M urea, 4 h; 1M urea, 12 h; and 0M urea, 12 h) and 50 mM Tris-HCl, pH 7.5, 250 mM NaCl, 0.1 mM EDTA, 1 mM DTT, and 0.2 μM flavin adenine dinucleotide (FAD).
Determination of PAO enzyme activity. PAO activity of the purified PAOh1/SMO was assayed using a modi.cation of the chemiluminesence analysis reported by Fernandez et al. and Rogers, et al.. Briefly, luminol-dependent chemiluminescence was determined using a Monolight 3010 luminometer with two reagent injectors. Luminol was prepared as a 100 mM stock solution in DMSO and diluted to 100 μM with H2O, immediately prior to use. Purified PAOh1/SMO was assayed in a 100 mM glycine buffer, pH 8.0, 5 ηmol luminol, 20 μg horseradish peroxidase, and the polyamine substrate as indicated. All reagents with the exception of the polyamine substrate were combined and incubated for 2 min at 37 ° C., then the tube was transferred to the luminometer, substrate was added, and the resulting chemiluminescence was integrated over 20 s. The integral values are calibrated against standards containing known concentrations of H2O2 and the activities are expressed as pmols H2O2/mg protein/min. Where indicated, inhibitors were added at the specified concentrations prior to the addition of substrate. Km and Vmax values for the purified enzyme with the indicated substrate were estimated using Lineweaver-Burk transformation of the Michaelis-Menten kinetic equation.

NCI A549 cells [2] = test: Intracellular polyamine and analogue content of NCI A549 cells (HPLC); assay type: cell-based, human; details: NCI A549, 10 μM, 24 h
Description: as §2

NCI A549 cells [3] = test: MTS cell growth analysis of NCI A549 cells with or without MDL 72,527; assay type: cell-based, human; details: NCI A549, 96 h, 10 μM analogue with 250 μM MDL 72,527
Description: as §1

SSAT = SSAT activity of NCI A549 cellular extracts; assay type: cell-based, human; details: NCI A549, 10 μM, 24 h; untreated 5 ± 0.1
Description: as §2

PAOh4 = target: T2, PAOh4 (Homo sapiens, UniProt Q9NWM0); test: Kinetics of TnT-produced PAOh4 isoenzyme; assay type: biochemical; details: named compound as substrate
T2 construct: For PAO-isoform 4, the cDNA is 1825 bp long; the open reading frame encodes 532 amino acids; made in house; host or cells: Wheat Germ Extract-TnT coupled system (Promega), template pPAOh4 (pcDNA3.1), cDNA from HEK-293 mRNA
Description: For PAO splice variant protein analysis, each cDNA construct, as well as the pcDNA3.1 empty vector, was linearized using NdeI. In vitro transcription and translation was subsequently performed using the Wheat Germ Extract-TnT coupled system from Promega (Madison, Wis., U.S.A.) according to the manufacturer's protocol. Reactions were performed in parallel, with one aliquot containing [^35S]methionine in the amino acid mixture for subsequent separation and quantification by SDS-PAGE. […] After drying, bands were visualized and quantified using phosphorimage analysis with Image Quant software from Molecular Dynamics (Sunnyvale, Calif., U.S.A.).
TnT products from the reactions using unlabelled substrates were used for PAO enzyme analysis by the method of Suzuki et al. Specifically, 10 μl of the TnT reaction mixture was used for each 600 μl of PAO assay sample (in duplicate, and in the presence of monoamine and diamine oxidase inhibitors, as previously described). Background oxidase activity in the Wheat Germ Extract-TnT reactions was determined for each substrate using the empty pcDNA3.1 vector. These values (always<0.05 pmol/min) were subtracted from the oxidase activity measured in TnT lysates produced from vectors containing the individual splice variants. To ensure linearity of the reaction (thereby determining the optimal incubation time after substrate addition), time courses were performed for each potential isoenzyme in the presence of 1 mM Spm (Sigma, St. Louis, Mo., U.S.A.).
Apparent kinetics were examined for each isoenzyme using TnT reaction products as described above with increasing concentrations of Spm, Spd (Sigma) or N^1-acetylspermine (N^1-AcSpm; Fluka). Apparent Km and Vmax values were determined using the Lineweaver-Burk transformation of the Michaelis-Menten equation. Values were adjusted for TnT reaction efficiency by SDS-PAGE quantfication of a [^35S]methionine-labelled aliquot of the TnT reaction mixture normalized for methionine content.

[4] = named compound as substrate, Lineweaver-Burk

T1 sequence (Q9NWM0 whole entry, the tested form may be a part): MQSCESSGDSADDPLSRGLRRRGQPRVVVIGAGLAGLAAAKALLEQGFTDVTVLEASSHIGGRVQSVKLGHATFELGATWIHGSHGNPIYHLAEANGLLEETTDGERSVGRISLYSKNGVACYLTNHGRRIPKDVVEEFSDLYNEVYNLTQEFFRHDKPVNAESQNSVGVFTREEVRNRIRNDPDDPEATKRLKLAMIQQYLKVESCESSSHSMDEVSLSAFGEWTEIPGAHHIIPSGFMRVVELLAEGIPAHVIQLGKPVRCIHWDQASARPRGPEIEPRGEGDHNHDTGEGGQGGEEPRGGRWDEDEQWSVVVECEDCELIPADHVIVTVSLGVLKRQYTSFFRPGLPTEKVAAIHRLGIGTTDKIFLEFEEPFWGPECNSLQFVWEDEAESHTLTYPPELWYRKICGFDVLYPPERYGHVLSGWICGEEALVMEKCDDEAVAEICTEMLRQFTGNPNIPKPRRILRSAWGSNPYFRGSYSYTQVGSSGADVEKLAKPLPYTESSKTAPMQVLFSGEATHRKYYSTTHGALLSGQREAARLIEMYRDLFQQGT
T2 sequence (Q9NWM0 1-532 isoform Q9NWM0-4): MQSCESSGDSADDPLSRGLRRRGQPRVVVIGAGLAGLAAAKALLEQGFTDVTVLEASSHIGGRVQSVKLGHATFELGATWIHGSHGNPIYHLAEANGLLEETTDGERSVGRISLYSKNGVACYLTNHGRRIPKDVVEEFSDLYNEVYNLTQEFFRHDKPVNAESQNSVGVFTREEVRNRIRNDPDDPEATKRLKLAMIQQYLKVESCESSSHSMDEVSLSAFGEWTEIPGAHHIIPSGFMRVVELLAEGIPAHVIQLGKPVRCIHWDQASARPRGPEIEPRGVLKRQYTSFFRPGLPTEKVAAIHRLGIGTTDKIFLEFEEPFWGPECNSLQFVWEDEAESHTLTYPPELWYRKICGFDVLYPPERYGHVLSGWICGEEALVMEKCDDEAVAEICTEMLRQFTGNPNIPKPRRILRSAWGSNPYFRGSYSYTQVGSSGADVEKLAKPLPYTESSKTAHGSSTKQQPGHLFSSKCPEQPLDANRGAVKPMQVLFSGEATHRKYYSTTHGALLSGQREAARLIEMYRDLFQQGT

Compound | inhibition of PAOh1/SMO activity, increasing concentrations [1] | Km of PAOh4 (PAOh4) | induction of PAOh1/SMO activity (PAOh1/SMO) | ability to serve as substrate (oxidation by purified PAOh1/SMO) [1] | substrate of the inducible PAOh1/SMO activity (PAOh1/SMO) | other results
CCNCCCNCCCNCCCNCC1CCCCCC1 [CHENSpm, N^1-ethyl-N^11-(cycloheptyl) methyl-4,8,diazaundecane] | not found to profoundly inhibit | – | significant induction | none of the analogues examined were found to be oxidized | – | inhibition of PAOh1/SMO activity ([1]; at 10 μM): < 20%
CCNCCCNCCCNCCCNCC1CC1 [CPENSpm, N^1-ethyl-N^11-(cyclopropyl) methyl-4,8,diazaundecane] | – | – | significant induction | none of the analogues examined were found to be oxidized | – | PAOh1/SMO activity (PAOh1/SMO; NCI A549, 10 μM, 24 h, untreated 6,390 ± 2,070): 14,300 ± 3,700 pmol H2O2/mg/h; dose-dependence of PAOh1/SMO activity (PAOh1/SMO; NCI A549, increasing concentrations, 24 h): continued to increase at concentrations up to 50 μM; Polyamine: Putrescine (NCI A549 cells [2]; untreated 2.1 ± 0.7): <0.05 nmol/mg protein; Polyamine: Spermine (NCI A549 cells [2]; untreated 9.9 ± 1.2): 2.4 ± 0.4 nmol/mg protein; Polyamine: Spermidine (NCI A549 cells [2]; untreated 26.9 ± 1.2): 5.5 ± 0.2 nmol/mg protein; sensitivity of cell growth to analogue in the presence of the PAOh1/SMO inhibitor (NCI A549 cells [3]): clear decrease in sensitivity; SSAT activity (SSAT): 1190 ± 287.9 pmol N^1-acetylspermidine/mg p
CCNCCCNCCCNCCCNC[C@@H](C)CC [IPENSpm, (S)-N1-(2-methyl-1-butyl)-N^11-ethyl-4,8,diazaundecane] | – | – | significant induction | none of the analogues examined were found to be oxidized | – | –
CC(=O)NCCCNCCCCNCCCN [N^1-acetylspermine] | – | nanomolar range | – | less efficient | not significantly active | Km [1, 4]: 51 µM; Vmax of purified PAOh1/SMO [1, 4]: 0.251 μmol/mg protein/min
NCCCCNCCCN [spermidine] | – | nanomolar range | – | No PAOh1/SMO activity was observed | not significantly active | –

Now from value to molecule, other results behind:

inhibition of PAOh1/SMO activity, increasing concentrations [1] | Km of PAOh4 (PAOh4) | Compound | induction of PAOh1/SMO activity (PAOh1/SMO) | ability to serve as substrate (oxidation by purified PAOh1/SMO) [1] | substrate of the inducible PAOh1/SMO activity (PAOh1/SMO) | other results
potent inhibitors | – | CCNCCCCNCCCCNCCCCNCCCCNC/C=C/CNCCCCNCCCCNCCCCNCCCCNCC [SL-11144] | did not induce | none of the analogues examined were found to be oxidized | – | potency relative to MDL 72,527 [1]: 100 times
potent inhibitors | – | CCNCCCCNCCCCNCCCCNCCCCNC/C=C\CNCCCCNCCCCNCCCCNCCCCNCC [SL-11150] | did not induce | none of the analogues examined were found to be oxidized | – | potency relative to MDL 72,527 [1]: 100 times
– | nanomolar range | NCCCNCCCCNCCCN [spermine] | – | efficiently oxidize | only spermine was a substrate | –
